Starred links: 1 amine or outer side, 2 acyl side, 3 side chain; linkers in the order of their positions; H or OH if unused. Positions of bridges follow the written chain, without caps; N, C: chain ends. Residues, ends and D or L forms follow the SMILES beside them. *: point of attachment. C18 diacid = O=C(O)CCCCCCCCCCCCCCCCC(=O)*; γGlu = O=C(O)[C@H](CCC(=O)[*:2])N[*:1]; AEEA = NCCOCCOCC(=O)O

Results on two molecules are retold here after patent US20240209028A1, “CNP COMPOUNDS” (priority 2022, published 2024).

Data set [1] can be described thus: Accelerated chemical stability (RP-UPLC recovery and LCMS degradation pattern, 37° C.). The note with it: LCMS, 8 mM sodium phosphate, 250 mM glycerol, pH 6.5; for Fragments 2 W / Isomers 2 W / Loss of 18 amu 2 W / Others 2 W: 2 weeks at 37° C.; for Fragments TZ / Isomers TZ / Loss of 18 amu TZ / Others TZ: time zero. Details: Isomers TZ / Isomers 2 W / Loss of 18 amu TZ / Loss of 18 amu 2 W / Fragments TZ / Fragments 2 W / Fragments 1 W / Fragments 3 W / Fragments 4 W / Fragments 5 W / Fragments 6 W / Others 1 W / Others 3 W / Others 4 W / Others 5 W / Others 6 W / Isomers 1 W / Isomers 3 W / Isomers 4 W / Isomers 5 W / Isomers 6 W / Loss of 18 amu 1 W / Loss of 18 amu 3 W / Loss of 18 amu 4 W / Loss of 18 amu 5 W / Loss of 18 amu 6 W: unit not given here. The class given is physicochemical. The method, then: In order to determine the chemical stability of CNP compounds in formulation, samples of CNP compounds in buffer were exposed to accelerated chemical degradation by heating. The stability of a given peptide was assessed by measuring recovery of intact peptide by quantification by RP-UPLC. To assess the chemical degradation pattern samples were also analysed by LC-MS.
Sample preparation: Samples for the 2 week study were prepared according to the principles described in Example 5.
Samples for the 6 week study were prepared by dissolving lyophilized peptide in buffer (8 mM phosphate, 250 mM glycerol, pH 7.4) to a nominal peptide concentration of 5000 nmol/ml followed by pH adjustment with 0.1 N HCl to pH 6.5.
Incubation: For the 2 week study a time-zero (TZ) sample was pulled and stored at −18° C. and the remaining volume was incubated at 37° C. Samples were pulled and stored at −18° C. after 2 weeks of incubation. Frozen samples were thawed, diluted to about 200 nmol/mL and the extent of chemical degradation was determined using LCMS as described.
For the 6 week study a time-zero (TZ) sample was pulled and stored at −18° C. and the remaining volume was incubated at 37° C. Samples were pulled on a weekly basis and stored at −18° C. until the last sampling time point at 6 weeks. Frozen samples were thawed, diluted to about 200 nmol/mL and the extent of chemical degradation was determined using RP-UPLC and LCMS as described.
Analysis of peptide recovery by RP-UPLC: The RP-UPLC method was performed on a Waters ACQUITY H-CLASS UPLC system fitted with a PDA detector. Separation was carried out on an ACQUITY UPLC BEH C8 Column (130 Å, 1.7 μm, 2.1 mm×150 mm) operating at a column temperature of 50° C. with eluent A (19.59 mM NH4H2PO4 41.71 mM (NH4)2HPO4, pH 6.5 and MeCN 9:1 v:v) and eluent B (80% MeCN in water). UV-detection was carried out at 214 nm. The analysis was performed by injection of 3 μL of sample onto the column which was eluted with a 1-step linear gradient of eluents A and B from 27 to 30% B over 20 minutes followed by a wash at 95% B over 2 minutes followed by a re-equilibration phase for 7 minutes at a constant flow rate of 0.3 mL/min. This yielded an analysis time of 30 minutes per sample. The area of the peak corresponding to intact CNP compound was given on a percentage scale relative to the total peptide peak area.
Analysis of chemical degradation patterns by LCMS: Samples were analysed on a […] UPLC from Thermo Scientific, using a Waters Acquity C18 reversed-phase column, 300 Å, […] particles 1 mm×150 mm. The compounds were separated by a linear gradient of solvent B from 5% to 55% over 48 minutes, using solvent A: water, 0.1% formic acid with 0.02% TFA and solvent B: acetonitrile, 0.1% formic acid with 0.02% TFA. Mass spectra were acquired by a Q Exactive Plus hybrid Quadrupole-Orbitrap mass spectrometer, BioPharma option (Thermo Scientific) interfaced with H-ESI II ion source. Data acquisitions were performed with a m/z 500 to 2000 scan range and a resolution of 30000.
The data list was aggregated into a summed table of the compounds. The table headers were defined as follows: […]
Results: The results from LCMS analysis of a 2 week accelerated degradation study on several CNP compounds of the present invention are summarised in Table 12. The results from RP-UPLC and LCMS analysis of a 6 week accelerated degradation study on CNP compound 9482 (Chem. 137) is summarised in Table 13 and Table 14 respectively.

A further data set concerns the target neprilysin (NEP) (Homo sapiens, UniProt P08473). Description: In vitro neprilysin stability. The note with it: recombinant human neprilysin (rhNEP), pH 7.4.

Chain of neprilysin (NEP) (P08473 whole entry): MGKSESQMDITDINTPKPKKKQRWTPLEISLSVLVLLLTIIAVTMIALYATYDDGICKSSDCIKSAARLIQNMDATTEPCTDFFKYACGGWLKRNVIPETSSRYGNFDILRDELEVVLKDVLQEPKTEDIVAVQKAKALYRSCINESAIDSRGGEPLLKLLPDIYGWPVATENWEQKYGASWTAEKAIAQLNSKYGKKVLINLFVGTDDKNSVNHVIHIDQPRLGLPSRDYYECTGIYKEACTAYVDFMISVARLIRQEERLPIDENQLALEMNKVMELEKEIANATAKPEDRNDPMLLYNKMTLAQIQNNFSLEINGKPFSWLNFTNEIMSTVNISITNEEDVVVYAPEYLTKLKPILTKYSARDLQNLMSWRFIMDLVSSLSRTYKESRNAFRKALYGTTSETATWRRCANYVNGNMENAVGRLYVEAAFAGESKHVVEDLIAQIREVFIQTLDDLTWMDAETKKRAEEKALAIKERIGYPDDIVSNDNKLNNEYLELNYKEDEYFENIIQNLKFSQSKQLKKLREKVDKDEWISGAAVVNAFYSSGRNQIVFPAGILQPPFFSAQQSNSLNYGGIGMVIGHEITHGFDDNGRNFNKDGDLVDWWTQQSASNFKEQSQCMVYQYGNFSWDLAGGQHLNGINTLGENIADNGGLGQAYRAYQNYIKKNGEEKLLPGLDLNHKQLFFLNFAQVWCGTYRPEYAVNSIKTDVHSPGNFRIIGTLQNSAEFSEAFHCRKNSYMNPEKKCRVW
Method for neprilysin (NEP): Therefore, an in vitro neprilysin stability assay was set up to test the neprilysin mediated degradation of selected CNP compounds.
Procedure: In short, the assay buffer consisted of PBS-buffer (pH 7.4, ThermoFisher Scientific) with a final concentration of 0.005% v/v tween 20 (Sigma-Aldrich). Recombinant human neprilysin (rhNEP; R&D Systems) and the CNP compounds were dissolved in assay buffer. Native CNP22 (0065, Chem. 1) was included as positive control on each day of incubation. Initially, the CNP compound (the final concentration was 1000 nM) was pre-incubated in assay buffer for 10 min at 37° C. The assay was started by adding either rhNEP (final concentration was 2 μg protein per mL) or assay buffer (adsorption experiment) and the incubation was conducted at 37° C. […] The mixture was centrifuged at 13000 rpm at 4° C. for 20 minutes. After centrifugation, one volume of supernatant was mixed with one volume of Milli-Q water.
Analysis by LCMS: The mixture was analysed by LCMS using an Acquity UPLC Peptide CSH C18 analytical column from Waters (130 Å, 1.7 μm, 1*50 mm) operated at 60° C. A gradient elution was conducted with a Nexera UHPLC system (Shimadzu) using mobile phase A (consisting of Milli-Q water with 0.1% formic acid) and mobile phase B (consisting of acetonitrile with 0.1% formic acid). The flow was 0.3 ml/min. A zenoTOF 7600 mass spectrometer (Sciex) was used as detector and operated in positive electrospray ionisation mode. Data was recorded in full scan mode (m/z 300-1700).
Calibration curves were prepared in assay buffer and treated as study samples. These samples were used for calculating the concentration of the relevant CNP compound in the in vitro samples. Quality control samples were included. For at least 75% of the standards and QCs, the deviation between nominal and calculated concentration was below 20%.
All incubations were conducted in duplicate. Data was reported as percent remaining at 90 min (based on calculated concentrations) compared to the average concentration in the 0.5-minute time point samples.

Take `CC[C@H](C)[C@@H]1NC(=O)[C@H](CCCNC(=N)N)NC(=O)[C@H](CC(=O)O)NC(=O)[C@H](CC(C)C)NC(=O)[C@@H]2CCCN2C(=O)[C@H](CC(C)C)NC(=O)CNC(=O)[C@H](Cc2ccccc2)NC(=O)[C@@H](NC(=O)CNC(=O)[C@H](CCC(N)=O)NC(=O)[C@H](CO)NC(=O)[C@H](CC(C)C)NC(=O)CNC(=O)[C@H](CCCCN)NC(=O)[C@H](CCCCN)NC(=O)[C@H](CCC(N)=O)NC(=O)[C@H](C)NC(=O)CNC(=O)[C@H](CCCCN)NC(=O)[C@H](Cc2ccc(O)cc2)NC(=O)COCCOCCNC(=O)COCCOCCNC(=O)COCCOCCNC(=O)COCCOCCNC(=O)CC[C@H](NC(=O)CC[C@H](NC(=O)CC[C@H](NC(=O)CCCCCCCCCCCCCCCCC(=O)O)C(=O)O)C(=O)O)C(=O)O)CSSC[C@@H](C(=O)O)NC(=O)CNC(=O)[C@H](CC(C)C)NC(=O)CNC(=O)[C@H](CO)NC(=O)[C@H](CC(C)C)NC(=O)[C@H](CO)NC(=O)CNC1=O` [Compound 9480] ({C18 diacid-γGlu-γGlu-γGlu-AEEA-AEEA-AEEA-AEEA}-YKGAQKKGLSQGCFGLPLDRIGSLSGLGC-OH; disulfide 13-29): in data set [1], the “Fragments 2 W” value came to 0, the “Isomers 2 W” value is reported as 0, the “Loss of 18 amu 2 W” value is recorded as 0 and the Others 2 W was 0.6%. Besides, in data set [1], the “Fragments TZ” value is reported as 0, the “Isomers TZ” value amounted to 0, the “Loss of 18 amu TZ” value is reported as 0 and the Others TZ was determined as 0%. For the same molecule, the fraction remaining at 1.5 h, 1000 nM on neprilysin (NEP) was 98.3%.

For `CC[C@H](C)[C@@H]1NC(=O)[C@H](CCCNC(=N)N)NC(=O)[C@H](CC(=O)O)NC(=O)[C@H](CC(C)C)NC(=O)[C@@H]2CCCN2C(=O)[C@H](CC(C)C)NC(=O)CNC(=O)[C@H](Cc2ccccc2)NC(=O)[C@@H](NC(=O)CNC(=O)[C@H](CO)NC(=O)[C@H](CO)NC(=O)[C@H](CC(C)C)NC(=O)CNC(=O)[C@H](CCCCN)NC(=O)[C@H](CCCCN)NC(=O)[C@H](CCC(N)=O)NC(=O)[C@H](C)NC(=O)CNC(=O)[C@H](CCCCN)NC(=O)[C@H](Cc2ccc(O)cc2)NC(=O)[C@H](CCCCN)NC(=O)[C@H](CCCNC(=N)N)NC(=O)[C@H](C)NC(=O)[C@H](CCC(N)=O)NC(=O)[C@@H]2CCCN2C(=O)[C@H](Cc2c[nH]cn2)NC(=O)[C@H](CCC(=O)O)NC(=O)[C@H](CCC(N)=O)NC(=O)CC[C@H](NC(=O)CC[C@H](NC(=O)CC[C@H](NC(=O)CC[C@H](NC(=O)CC[C@H](NC(=O)CCCCCCCCCCCCCCCCC(=O)O)C(=O)O)C(=O)O)C(=O)O)C(=O)O)C(=O)O)CSSC[C@@H](C(=O)O)NC(=O)CNC(=O)[C@H](CC(C)C)NC(=O)CNC(=O)[C@H](CO)NC(=O)[C@H](CC(C)C)NC(=O)[C@H](CO)NC(=O)CNC1=O` [Compound 9482] ({C18 diacid-γGlu-γGlu-γGlu-γGlu-γGlu}-QEHPQARKYKGAQKKGLSSGCFGLPLDRIGSLSGLGC-OH; disulfide 21-37), in data set [1], the “Fragments 2 W” value was found to be 0, the “Isomers 2 W” value is on record as 0, the “Loss of 18 amu 2 W” value is 0 and the Others 2 W amounted to 0.3%. In data set [1], the “Fragments TZ” value is 0, the “Isomers TZ” value is given as 0, the “Loss of 18 amu TZ” value came to 0 and the Others TZ is 0%. Further, the amount remaining at 1.5 h, 1000 nM on neprilysin (NEP) was determined as 96.3%.

The term fraction remaining denotes what is left of the initial amount, in per cent.
